Test results taken from patent US10100055B2, “Imidazopyrroloquinoline salt, method for producing the same, medicament, cosmetic, and food” (Mitsubishi Gas Chemical Company, Inc., priority 2016, dated 2018).

Key:
[1] = tested on: Human uterine cancer cells (HeLa cells); test: Cell activity test (cell counting kit 8); type: cell-based; design: number of the human uterine cancer cells (number without sample taken to be 100): dose or concentration left out as unconfirmed
Experimental: Human uterine cancer cells (HeLa cells) were cultured in an incubator at a 5%-CO2 concentration and at 37° C. Thereafter, the human uterine cancer cells were inoculated to 96 wells so as to become 1000 cells/well, and cultured for one night. Then, a suspension in which the sample of Example 1 was suspended in a phosphate buffer so as to become 1 g/L was used and added so as to become […]. After 2 days, by using a “cell counting kit 8” (trade name, manufactured by Dojindo Laboratories), the number of the human uterine cancer cells was measured. When the number of the human uterine cancer cells 2 days after the culture for one night when the sample of Example 1 was not added was taken to be 100, the number of the cells when the sample of Example 1 in […] was used was 112.

[2] = Solubility in water or ethanol, by absorbance at 260 nm; type: physicochemical; conditions: thermodynamic from solid
Experimental: The resultants were allowed to stand at the following temperatures (23° C. or 50° C.) for 1 hour, and thereafter centrifuged, and filtered with a filter of 0.5 μm; […] at an absorption wavelength of 260 nm.

For `N=C(N)NCCCc1nc2c(=O)c3cc(C(=O)O)[nH]c3c3c(C(=O)O)cc(C(=O)O)n1c23` [Example 1, argIPQ disodium trihydrate], the “effect on cell proliferation (in words)” value [1] was “functioned to advance the cell proliferation”, the “number of the human uterine cancer cells (number without sample taken to be 100)” value ([1]; after 2 days, control = 100) was 112 and the solubility at 1 h ([2]; organic solvent or mixture, ethanol, 23° C.) was 0.4 mg/mL. The solubility at 1 h ([2]; water, 23° C.) was 37 mg/mL and the solubility at 1 h ([2]; water, 50° C.) was 47 mg/mL.
